Experimental findings from patent US20240190883A1, “KRAS PROTEIN DEGRADERS, PHARMACEUTICAL COMPOSITIONS THEREOF, AND THEIR THERAPEUTIC APPLICATIONS” (BioTheryX, Inc., priority 2021, published 2024) are described below.

Holding throughout (type): cell-based
For one experiment, the system named is H23 cells. Briefly: Cell viability assay (CELLTITER-GLO), H23 cells. The conditions noted are these: Homo sapiens, NCI-H23, 72 h, 3 days incubation, 2.5% fetal bovine serum, read-out: Inhibition of Cancerous Cells IC50 (μM) H23. As for the experimental part:
(§1) H358, H23, SW48, and AsPC-1 cells were cultured in RPMI 1640 media supplemented with 10% fetal bovine serum, streptomycin, and penicillin. Lovo and SW480 cells were cultured in DMEM media supplemented with 10% fetal bovine serum, streptomycin, and penicillin. The cell lines were plated in their respective medium supplemented with 2.5% fetal bovine serum, streptomycin, and penicillin. All cell lines were plated in white walled 96-well plates at 2,000 cells/well or 384-well plates at 500 cells/well, except Lovo, which were plated at 4,000 or 1,000 cells/well, respectively. The cells were incubated in DMSO (control) or a compound for 3 days at 37° C. under 5% C02. A CELLTITER-GLO® reagent (100 μL) was then added to each well. After a 10 min incubation with shaking, luminescence was measured using an ENVISION® multimode plate reader. IC50 values are summarized in Table 1 and percentages of inhibition are summarized in Table 2, where compound T1 is 2-(4-(2-methyl-3,5-diphenylpyrazolo[1,5-a]pyrimidin-7-yl)piperazin-1-yl)ethan-1-ol.

In the next experiment the test system is H358 (G12C) cells. The experiment is described as follows: Cell viability assay (CELLTITER-GLO), H358 cells. Particulars: Homo sapiens, NCI-H358, 72 h, 3 days incubation, 2.5% fetal bovine serum, read-out: Inhibition of Cancerous Cells IC50 (μM) H358 (G12C). As for the experimental part:
as §1

Another experiment concerns SW480 (G12V) cells. The experiment is described as follows: Cell viability assay (CELLTITER-GLO), SW480 cells. Particulars: Homo sapiens, 72 h, 3 days incubation, 2.5% fetal bovine serum, read-out: Inhibition of Cancerous Cells IC50 (μM) SW480 (G12V). As for the experimental part: as §1
A further experiment concerns Lovo (G13D) cells. The experiment is described as follows: Cell viability assay (CELLTITER-GLO), Lovo cells. The conditions noted are these: Homo sapiens, 72 h, 3 days incubation, 2.5% fetal bovine serum, read-out: Inhibition of Cancerous Cells IC50 (μM) Lovo (G13D). As for the experimental part:
as §1

For another experiment, the system named is SW48 (wt) cells. Briefly: Cell viability assay (CELLTITER-GLO), SW48 cells. The conditions noted are these: Homo sapiens, 72 h, 3 days incubation, 2.5% fetal bovine serum, read-out: Inhibition of Cancerous Cells IC50 (μM) SW48 (wt). As for the experimental part:
as §1
On the technique in general: Cellular ATP, detected with luciferase, serves as a proxy for viable cell number.

Another experiment has as its system Molm-13 cells. Briefly: Cell viability assay, inhibition of Molm-13 cells. Particulars: Homo sapiens; for inhibition at 1 µM: compound at 1 μM; for inhibition at 3 µM: compound at 3 μM. As for the experimental part:
[Worded in the source for another cell line; this cell line is reported under the same test.] as §1

Experiment [1] has as its target T1, KRAS protein (Homo sapiens, UniProt P01116, G12C).
T1 construct: engineered to express a Hobbit-tagged endogenous KRAS protein; endogenous in cells; host or cells: MIA PaCa-2, endogenous KRAS locus engineered with a HiBiT tag
Briefly: HIBIT degradation assay, MIA PaCa-2 cells. The conditions noted are these: 24 h, HiBiT signal normalized to CTG signal. As for the experimental part: (§2) HEK293, MIA PaCa-2, AsPc-1, SW620, and H647 cells were engineered to express a […] endogenous KRAS protein. The HEK293 and MIA PaCa-2 cells were cultured in DMEM media supplemented with 10% fetal bovine serum, streptomycin, and penicillin. The AsPc-1, SW620, and H647 were cultured in RPMI media supplemented with 10% fetal bovine serum, streptomycin, and penicillin. The cells were seeded in white walled 96-well plates at 20,000 cells/well in 100 μL culture media in duplicate plates. After incubated at 37° C. under 5% CO2 overnight, the cells were treated with DMSO (control) or a compound, followed by the addition of 100 μL culture media to each well. After the cells were incubated for 24 h at 37° C. under 5% C02, 150 μL media were removed from each well and 50 μL NANOGLO-LGBIT lytic reagent were added to each well, and 50 μL CELLTITER-GLO (CTG) reagent was added to the duplicate plate. Following a 10-minute incubation with shaking, luminescence was measured using a Perkin Elmer ENVISION multimode plate reader. HiBiT signal was normalized to CTG signal. The results are summarized in Table 3, where “A” represents a percentage degradation value of no less than 50%; “B” represents a percentage degradation value of less than 50% and no less than 25%; “C” represents a percentage degradation value of less than 25% and no less than 10%; and “D” represents a percentage degradation value of less than 10%.
Background: HiBiT is a short tag that completes a luciferase, so light tracks the accessible tagged protein.

In experiment [2] the target is T2, KRAS protein (Homo sapiens, UniProt P01116, G12D).
T2 construct: engineered to express a Hobbit-tagged endogenous KRAS protein; endogenous in cells; host or cells: AsPC-1, endogenous KRAS locus engineered with a HiBiT tag
Briefly: HIBIT degradation assay, AsPC-1 cells. The conditions noted are these: 24 h, HiBiT signal normalized to CTG signal; for Effect on KRAS Protein Degradation, AsPC-1, 3 μM: compound at 3 μM; for Effect on KRAS Protein Degradation, AsPC-1, 5 μM: compound at 5 μM. As for the experimental part: as §2

In experiment [3] the target is T3, KRAS protein (Homo sapiens, UniProt P01116, G13D).
T3 construct: engineered to express a Hobbit-tagged endogenous KRAS protein; endogenous in cells; host or cells: H647, endogenous KRAS locus engineered with a HiBiT tag
The experiment is described as follows: HIBIT degradation assay, H647 cells. The conditions noted are these: 24 h, HiBiT signal normalized to CTG signal; for Effect on KRAS Protein Degradation, H647, 3 μM: compound at 3 μM; for Effect on KRAS Protein Degradation, H647, 5 μM: compound at 5 μM. As for the experimental part:
as §2

The target of experiment [4] is T4, KRAS protein (Homo sapiens, UniProt P01116).
T4 construct: engineered to express a Hobbit-tagged endogenous KRAS protein; endogenous in cells; host or cells: HEK293, endogenous KRAS locus engineered with a HiBiT tag
Briefly: HIBIT degradation assay, HEK293 cells. Particulars: 24 h, HiBiT signal normalized to CTG signal. As for the experimental part:
as §2

T3 sequence (P01116 1-185 isoform P01116-2 G13D limits assumed): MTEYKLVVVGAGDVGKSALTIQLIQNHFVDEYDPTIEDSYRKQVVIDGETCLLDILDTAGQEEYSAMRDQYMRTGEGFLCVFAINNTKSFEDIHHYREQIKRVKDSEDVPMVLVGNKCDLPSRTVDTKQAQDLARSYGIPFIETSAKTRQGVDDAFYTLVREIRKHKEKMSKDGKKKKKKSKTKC
T2 sequence (P01116 1-188 isoform P01116-2 G12D): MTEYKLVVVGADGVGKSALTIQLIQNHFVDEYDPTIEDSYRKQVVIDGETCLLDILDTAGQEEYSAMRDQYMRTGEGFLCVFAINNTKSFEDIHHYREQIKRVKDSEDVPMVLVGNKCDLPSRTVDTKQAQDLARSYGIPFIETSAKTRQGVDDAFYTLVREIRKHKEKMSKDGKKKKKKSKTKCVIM
T1 sequence (P01116 whole entry G12C): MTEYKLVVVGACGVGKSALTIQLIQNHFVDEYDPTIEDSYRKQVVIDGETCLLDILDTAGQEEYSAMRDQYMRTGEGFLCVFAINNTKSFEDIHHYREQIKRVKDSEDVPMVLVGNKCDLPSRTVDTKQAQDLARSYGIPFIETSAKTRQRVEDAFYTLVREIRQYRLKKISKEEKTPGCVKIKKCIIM
T4 sequence (P01116 1-188 isoform P01116-2): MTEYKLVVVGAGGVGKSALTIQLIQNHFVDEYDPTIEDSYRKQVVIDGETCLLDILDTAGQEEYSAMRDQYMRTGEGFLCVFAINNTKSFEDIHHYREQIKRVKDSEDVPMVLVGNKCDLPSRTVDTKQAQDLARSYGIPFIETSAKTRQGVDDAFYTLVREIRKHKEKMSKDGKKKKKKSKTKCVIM

As for `Cc1nn2c(N3CCN(CCO)CC3)cc(-c3cccc(CCCCCCCN4CCC(Nc5cccc(NC6CCC(=O)NC6=O)c5)CC4)c3)nc2c1-c1ccccc1` (stereo not shown) [Compound A1, 3-((3-((1-(7-(3-(7-(4-(2-Hydroxyethyl)piperazin-1-yl)-2-methyl-3-phenyl-pyrazolo[1,5-a]pyrimidin-5-yl)phenyl)heptyl)piperidin-4-yl)amino)phenyl)amino)piperidine-2,6-dione], the IC50 with H23 cells worked out at 0.81 µM; in the experiment on H358 (G12C) cells, 0.9 µM; in the experiment with SW480 (G12V) cells it was 0.4 µM; in the experiment with Lovo (G13D) cells it was 0.43 µM; in the experiment with SW48 (wt) cells, 0.54 µM.

Consider `Cc1nn2c(N3CCN(CCO)CC3)cc(-c3ccccc3)nc2c1-c1ccccc1` [Compound T1, 2-(4-(2-methyl-3,5-diphenylpyrazolo[1,5-a]pyrimidin-7-yl)piperazin-1-yl)ethan-1-ol, reference compound], for which the IC50 is 2.5 µM in the experiment with H23 cells; 2.4 µM in the experiment on H358 (G12C) cells; 0.7 µM in the experiment on SW480 (G12V) cells; 1.3 µM in the experiment with Lovo (G13D) cells; 1.9 µM in the experiment with SW48 (wt) cells. In the experiment on Molm-13 cells, this molecule showed an inhibition at 1 µM of 0%. Further, the inhibition at 10 µM with Molm-13 cells (compound at 10 μM) turned out to be 99%.

In the experiment on Molm-13 cells, `Cc1nn2c(N3CCN(CCO)CC3)cc(-c3ccccc3)nc2c1-c1cccc(CCCN2CCN(C(=O)COc3cccc4c(C5CCC(=O)NC5=O)nn(C)c34)CC2)c1` (stereo not shown) [Compound D20, 3-(7-(2-(4-(3-(3-(7-(4-(2-Hydroxyethyl)piperazin-1-yl)-2-methyl-5-phenyl-pyrazolo[1,5-a]pyrimidin-3-yl)phenyl)propyl)piperazin-1-yl)-2-oxoethoxy)-1-methyl-1H-indazol-3-yl)piperidine-2,6-dione] came in with an inhibition at 1 µM of 0% and an inhibition at 3 µM of 71%. For the same molecule, the “Effect on KRAS Protein Degradation, MIA PaCa-2, 3 μM” value at KRAS protein [1] (compound at 3 μM) was “C (a percentage degradation value of less than 25% and no less than 10%)”. Further, the “Effect on KRAS Protein Degradation, MIA PaCa-2, 5 μM” value at KRAS protein [1] (compound at 5 μM) was “C (a percentage degradation value of less than 25% and no less than 10%)”. In addition, at KRAS protein [2], the “Effect on KRAS Protein Degradation, AsPC-1, 3 μM” value (from here on “Effect … AsPC-1, 3 μM”) is on record as “D (a percentage degradation value of less than 10%)”; the “Effect on KRAS Protein Degradation, AsPC-1, 5 μM” value (“Effect … AsPC-1, 5 μM” below) is “C (a percentage degradation value of less than 25% and no less than 10%)”.

Consider `Cc1nn2c(N3CCN(CCO)CC3)cc(-c3cccc(CCCCCN4CCN(C(=O)CNc5cccc(C6CCC(=O)NC6=O)c5)CC4)c3)nc2c1-c1ccccc1` (stereo not shown) [Compound B5, 3-(3-((2-(4-(5-(3-(7-(4-(2-hydroxyethyl)piperazin-1-yl)-2-methyl-3-phenyl-pyrazolo[1,5-a]pyrimidin-5-yl)phenyl)pentyl)piperazin-1-yl)-2-oxoethyl)amino)phenyl)-piperidine-2,6-dione], for which the IC50 came to 0.83 µM with H23 cells; 0.52 µM in the experiment with H358 (G12C) cells; 0.42 µM in the experiment on SW480 (G12V) cells; 0.31 µM with Lovo (G13D) cells; 0.45 µM with SW48 (wt) cells. Moreover, on KRAS protein [3], the “Effect on KRAS Protein Degradation, H647, 3 μM” value (shortened to “Effect … H647, 3 μM”) was “D (a percentage degradation value of less than 10%)”. The “Effect on KRAS Protein Degradation, H647, 5 μM” value at KRAS protein [3] is listed as “A (a percentage degradation value of no less than 50%)”.

Consider `Cc1nn2c(N3CCN(CCO)CC3)cc(-c3ccccc3)nc2c1-c1cccc(CCCCCN2CCN(C(=O)CNc3cccc4c(N5CCC(=O)NC5=O)nn(C)c34)CC2)c1` [Compound D17, 1-(7-((2-(4-(5-(3-(7-(4-(2-hydroxyethyl)piperazin-1-yl)-2-methyl-5-phenyl-pyrazolo[1,5-a]pyrimidin-3-yl)phenyl)pentyl)piperazin-1-yl)-2-oxoethyl)amino)-1-methyl-1H-indazol-3-yl)dihydropyrimidine-2,4(1H,3H)-dione], for which, in the experiment with Molm-13 cells, the inhibition at 1 µM was determined as 34% and 3 µM produced 99% inhibition. Moreover, at KRAS protein [4] (compound at 3 μM), the “Effect on KRAS Protein Degradation, HEK293, 3 μM” value was “C (a percentage degradation value of less than 25% and no less than 10%)”. Further, the “Effect on KRAS Protein Degradation, HEK293, 5 μM” value at KRAS protein [4] (compound at 5 μM) is “C (a percentage degradation value of less than 25% and no less than 10%)”. Also, the “Effect … H647, 3 μM” value at KRAS protein [3] is “C (a percentage degradation value of less than 25% and no less than 10%)”. Further, at KRAS protein [2], the “Effect … AsPC-1, 3 μM” value was “B (a percentage degradation value of less than 50% and no less than 25%)”; the “Effect … AsPC-1, 5 μM” value was “C (a percentage degradation value of less than 25% and no less than 10%)”.

Turning to `Cc1nn2c(N3CCN(CCO)CC3)cc(-c3ccccc3)nc2c1-c1cccc(CCCCCCCN2CCN(C(=O)CNc3cccc4c(N5CCC(=O)NC5=O)nn(C)c34)CC2)c1` [Compound D18, 1-(7-((2-(4-(7-(3-(7-(4-(2-hydroxyethyl)piperazin-1-yl)-2-methyl-5-phenyl-pyrazolo[1,5-a]pyrimidin-3-yl)phenyl)heptyl)piperazin-1-yl)-2-oxoethyl)amino)-1-methyl-1H-indazol-3-yl)dihydropyrimidine-2,4(1H,3H)-dione], in the experiment with Molm-13 cells, the inhibition at 1 µM came to 14% and the inhibition at 3 µM was 95%. On KRAS protein [3], the “Effect … H647, 3 μM” value is given as “D (a percentage degradation value of less than 10%)”; the “Effect on KRAS Protein Degradation, H647, 5 μM” value was “C (a percentage degradation value of less than 25% and no less than 10%)”. For the same molecule, on KRAS protein [2], the “Effect … AsPC-1, 3 μM” value was “B (a percentage degradation value of less than 50% and no less than 25%)”; the “Effect … AsPC-1, 5 μM” value was “C (a percentage degradation value of less than 25% and no less than 10%)”.

As for `Cc1nn2c(N3CCN(CCO)CC3)cc(-c3cccc(CCCCCN4CCN(C(=O)CNc5cccc6c(C7CCC(=O)NC7=O)nn(C)c56)CC4)c3)nc2c1-c1ccccc1` (stereo not shown) [Compound D5, 3-(7-((2-(4-(5-(3-(7-(4-(2-hydroxyethyl)piperazin-1-yl)-2-methyl-3-phenyl-pyrazolo[1,5-a]pyrimidin-5-yl)phenyl)pentyl)piperazin-1-yl)-2-oxoethyl)amino)-1-methyl-1H-indazol-3-yl)piperidine-2,6-dione], the IC50 amounted to 0.95 µM in the experiment with H23 cells; 0.49 µM in the experiment with H358 (G12C) cells; 0.42 µM in the experiment with SW480 (G12V) cells; 0.27 µM with Lovo (G13D) cells; 0.5 µM in the experiment with SW48 (wt) cells.

One may read the IC50 as the concentration at which inhibition is half-maximal. Broadly, the inhibition is the percentage by which the read-out fell short of the control. Higher therefore signals strong suppression.
